{"source": "patent US20170190671A1", "about": "“BIS(ARYL)CATECHOL DERIVATIVES AS HERBICIDES” (E I DU PONT DE NEMOURS AND COMPANY, priority 2014, published 2017)", "format_in_all_cases": "in vivo", "key": {"[1]": {"test_system": "giant foxtail (Setaria faberii)", "assay": "Test C preemergence", "conditions": "Setaria faberi, pre-emergence, 336 h, preemergence, scale 0 to 100, read-out: Plant response rating, Foxtail, Giant", "text": "(§1) Seeds of plant species selected from blackgrass (Alopecurus myosuroides), Italian ryegrass (Lolium multiflorum), winter wheat (Triticum aestivum), galium (catchweed bedstraw, Galium aparine), corn (Zea mays), large (Lg) crabgrass (Digitaria sanguinalis), giant foxtail (Setaria faberii), johnsongrass (Sorghum halepense), lambsquarters (Chenopodium album), morningglory (Ipomoea coccinea), yellow nutsedge (Cyperus esculentus), pigweed (Amaranthus retroflexus), ragweed (common ragweed, Ambrosia elatior), soybean (Glycine max), barnyardgrass (Echinochloa crus-galli), oilseed rape (Brassica napus), waterhemp (common waterhemp, Amaranthus rudis), and velvetleaf (Abutilon theophrasti) were planted into a blend of loam soil and sand and treated preemergence with test chemicals formulated in a non-phytotoxic solvent mixture which included a surfactant.\n(§2) At the same time, plants selected from these crop and weed species and also chickweed (common chickweed, Stellaria media), kochia (Kochia scoparia), and wild oat (Avena fatua), were planted in pots containing Redi-Earth® planting medium (Scotts Company, 14111 Scottslawn Road, Marysville, Ohio 43041) comprising spaghnum peat moss, vermiculite, wetting agent and starter nutrients and treated with postemergence applications of test chemicals formulated in the same manner. Plants ranged in height from 2 to 18 cm (1- to 4-leaf stage) for postemergence treatments. Treated plants and controls were maintained in a greenhouse for 13 to 15 days, after which time all species were compared to controls and visually evaluated. Plant response ratings, summarized in Table C, are based on a scale of 0 to 100 where 0 is no effect and 100 is complete control. A dash (-) response means no test result."}, "[2]": {"test_system": "large (Lg) crabgrass (Digitaria sanguinalis)", "assay": "Test C preemergence", "conditions": "Digitaria sanguinalis, pre-emergence, 336 h, preemergence, scale 0 to 100, read-out: Plant response rating, Crabgrass, Large", "text": "as §1, §2"}, "[3]": {"test_system": "winter wheat (Triticum aestivum)", "assay": "Test C preemergence", "conditions": "Triticum aestivum, pre-emergence, 336 h, preemergence, scale 0 to 100, read-out: Plant response rating, Wheat", "text": "as §1, §2"}, "[4]": {"test_system": "oilseed rape (Brassica napus)", "assay": "Test C preemergence", "conditions": "Brassica napus, pre-emergence, preemergence, scale 0 to 100, read-out: Plant response rating, Oilseed Rape", "text": "as §1, §2"}, "[5]": {"test_system": "giant foxtail (Setaria faberii)", "assay": "Test C postemergence", "conditions": "Setaria faberi, post-emergence, 336 h, Postemergence, scale 0 to 100, read-out: Plant response rating, Foxtail, Giant", "method_in_brief": "(§3)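 Seeds sown in a loam soil and sand blend were treated preemergence; plants in peat-moss/vermiculite medium were sprayed at the 1- to 4-leaf stage (2-18 cm). Chemicals were in a non-phytotoxic surfactant-containing solvent. After 13 to 15 days in a greenhouse, injury was visually rated against controls on a 0-100 scale.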"}, "[6]": {"test_system": "galium (catchweed bedstraw, Galium aparine)", "assay": "Test C postemergence", "conditions": "Galium, post-emergence, 336 h, Postemergence, scale 0 to 100, read-out: Plant response rating, Galium", "method_in_brief": "as §3"}, "[7]": {"test_system": "yellow nutsedge (Cyperus esculentus)", "assay": "Test C postemergence", "conditions": "Cyperus, post-emergence, 336 h, Postemergence, scale 0 to 100, read-out: Plant response rating, Nutsedge, Yellow", "method_in_brief": "as §3"}, "[8]": {"test_system": "large (Lg) crabgrass (Digitaria sanguinalis)", "assay": "Test C postemergence", "conditions": "Digitaria sanguinalis, post-emergence, 336 h, Postemergence, scale 0 to 100, read-out: Plant response rating, Crabgrass, Large", "method_in_brief": "as §3"}, "[9]": {"test_system": "lambsquarters (Chenopodium album)", "assay": "Test C postemergence", "conditions": "Chenopodium album, post-emergence, 336 h, Postemergence, scale 0 to 100, read-out: Plant response rating, Lambsquarters", "method_in_brief": "as §3"}, "[10]": {"test_system": "Italian ryegrass (Lolium multiflorum)", "assay": "Test C postemergence", "conditions": "Lolium multiflorum, post-emergence, 336 h, Postemergence, scale 0 to 100, read-out: Plant response rating, Ryegrass, Italian", "method_in_brief": "as §3"}, "[11]": {"test_system": "blackgrass (Alopecurus myosuroides)", "assay": "Test C postemergence", "conditions": "Alopecurus myosuroides, post-emergence, 336 h, Postemergence, scale 0 to 100, read-out: Plant response rating, Blackgrass", "method_in_brief": "as §3"}}, "data": [{"molecule": "N#Cc1cccc(Oc2ncc(Cl)cn2)c1Oc1ncc(Cl)cn1", "note": "[Compound 3, 2,3-bis[(5-chloro-2-pyrimidinyl)oxy]benzonitrile]", "values": [{"measurement": "pest or weed control at 31 g/ha", "setting": "[1]; 31 g ai/ha", "result": 100, "unit": "%"}, {"measurement": "pest or weed control at 62 g/ha", "setting": "[1]; 62 g ai/ha", "result": 100, "unit": "%"}, {"measurement": "pest or weed control at 125 g/ha", "setting": "[1]; 125 g ai/ha", "result": 100, "unit": "%"}, {"measurement": "pest or weed control at 31 g/ha", "setting": "[2]; 31 g ai/ha", "result": 100, "unit": "%"}, {"measurement": "pest or weed control at 62 g/ha", "setting": "[2]; 62 g ai/ha", "result": 100, "unit": "%"}, {"measurement": "pest or weed control at 125 g/ha", "setting": "[2]; 125 g ai/ha", "result": 100, "unit": "%"}, {"measurement": "plant injury at 31 g/ha", "setting": "[3]; 31 g ai/ha", "result": 5, "unit": "%"}, {"measurement": "plant injury at 62 g/ha", "setting": "[3]; 62 g ai/ha", "result": 45, "unit": "%"}, {"measurement": "plant injury at 125 g/ha", "setting": "[3]; 125 g ai/ha", "result": 90, "unit": "%"}, {"measurement": "plant injury at 250 g/ha", "setting": "[3]; 250 g ai/ha", "result": 90, "unit": "%"}, {"measurement": "plant injury at 31 g/ha", "setting": "[4]; 31 g ai/ha", "result": 90, "unit": "%"}, {"measurement": "plant injury at 62 g/ha", "setting": "[4]; 62 g ai/ha", "result": 95, "unit": "%"}, {"measurement": "plant injury at 125 g/ha", "setting": "[4]; 125 g ai/ha", "result": 95, "unit": "%"}, {"measurement": "plant injury at 250 g/ha", "setting": "[4]; 250 g ai/ha", "result": 95, "unit": "%"}, {"measurement": "pest or weed control at 31 g/ha", "setting": "[5]; 31 g ai/ha", "result": 5, "unit": "%"}, {"measurement": "pest or weed control at 62 g/ha", "setting": "[5]; 62 g ai/ha", "result": 15, "unit": "%"}, {"measurement": "pest or weed control at 125 g/ha", "setting": "[5]; 125 g ai/ha", "result": 15, "unit": "%"}, {"measurement": "pest or weed control at 250 g/ha", "setting": "[5]; 250 g ai/ha", "result": 60, "unit": "%"}, {"measurement": "pest or weed control at 31 g/ha", "setting": "[6]; 31 g ai/ha", "result": 50, "unit": "%"}, {"measurement": "pest or weed control at 62 g/ha", "setting": "[6]; 62 g ai/ha", "result": 70, "unit": "%"}, {"measurement": "pest or weed control at 125 g/ha", "setting": "[6]; 125 g ai/ha", "result": 95, "unit": "%"}, {"measurement": "pest or weed control at 250 g/ha", "setting": "[6]; 250 g ai/ha", "result": 95, "unit": "%"}, {"measurement": "pest or weed control at 31 g/ha", "setting": "[7]; 31 g ai/ha", "result": 0, "unit": "%"}, {"measurement": "pest or weed control at 62 g/ha", "setting": "[7]; 62 g ai/ha", "result": 0, "unit": "%"}, {"measurement": "pest or weed control at 125 g/ha", "setting": "[7]; 125 g ai/ha", "result": 5, "unit": "%"}, {"measurement": "pest or weed control at 250 g/ha", "setting": "[7]; 250 g ai/ha", "result": 35, "unit": "%"}, {"measurement": "pest or weed control at 31 g/ha", "setting": "[8]; 31 g ai/ha", "result": 10, "unit": "%"}, {"measurement": "pest or weed control at 62 g/ha", "setting": "[8]; 62 g ai/ha", "result": 10, "unit": "%"}, {"measurement": "pest or weed control at 125 g/ha", "setting": "[8]; 125 g ai/ha", "result": 15, "unit": "%"}, {"measurement": "pest or weed control at 250 g/ha", "setting": "[8]; 250 g ai/ha", "result": 85, "unit": "%"}, {"measurement": "pest or weed control at 31 g/ha", "setting": "[9]; 31 g ai/ha", "result": 85, "unit": "%"}, {"measurement": "pest or weed control at 62 g/ha", "setting": "[9]; 62 g ai/ha", "result": 95, "unit": "%"}, {"measurement": "pest or weed control at 125 g/ha", "setting": "[9]; 125 g ai/ha", "result": 95, "unit": "%"}, {"measurement": "pest or weed control at 250 g/ha", "setting": "[9]; 250 g ai/ha", "result": 100, "unit": "%"}, {"measurement": "pest or weed control at 31 g/ha", "setting": "[10]; 31 g ai/ha", "result": 5, "unit": "%"}, {"measurement": "pest or weed control at 62 g/ha", "setting": "[10]; 62 g ai/ha", "result": 5, "unit": "%"}, {"measurement": "pest or weed control at 125 g/ha", "setting": "[10]; 125 g ai/ha", "result": 5, "unit": "%"}, {"measurement": "pest or weed control at 250 g/ha", "setting": "[10]; 250 g ai/ha", "result": 35, "unit": "%"}, {"measurement": "pest or weed control at 31 g/ha", "setting": "[11]; 31 g ai/ha", "result": 20, "unit": "%"}, {"measurement": "pest or weed control at 62 g/ha", "setting": "[11]; 62 g ai/ha", "result": 20, "unit": "%"}, {"measurement": "pest or weed control at 125 g/ha", "setting": "[11]; 125 g ai/ha", "result": 30, "unit": "%"}, {"measurement": "pest or weed control at 250 g/ha", "setting": "[11]; 250 g ai/ha", "result": 30, "unit": "%"}]}]}
